Reference: patent US6271220A, “Anti-angiogenic agents” (Allergan Sales, Inc., priority 1999, dated 2001)
pIC50: −log10 of the molar value.

These compounds were tested on Purified bovine brain tubulin (assay: in vitro tubulin polymerization assay (turbidimetric)). Conditions: GTP-initiated, 30 C, turbidity monitored for 15 minutes, read-out: 1C50, inhibitory effects on tubulin polymerization in vitro.
Type: biochemical
Method: Anti-mitotic activity can be evaluated by testing the ability of a compound of the invention to inhibit tubulin polymerization and microtubule assembly in vitro. The tubulin/microtubule system is instrumental in the formation in the mitotic spindle, making it a prime target for anti-mitotic agents. In vitro tubulin polymerization assays are performed to serve as an estimate of the in vivo cytotoxic activity of designated compounds. Purified bovine brain tubulin (120 μl, 4 mg/ml), 240 μl PME (100 mm piperazine-n, n-bis(2-ethane-sulfonic acid i.e., pipes, ph 6.9, 1 mm MgSO4, 2 mm ethyleneglycol-bis-(β-aminoethyl ether) N, N, N', N'-tetraacetic acid i.e. EGTA and 40 μl dimethyl sulfoxide i.e. DMSO, are combined and transferred to a 1 ml quartz cuvet. Polymerization is initiated by the addition of guanosine triphosphate i.e. GTP, (8 μl, 50 mM) and monitored turbidometrically in a Varian DMS 90 UV-Vis spectrophotometer in a temperature controlled cuvet holder at 30_C. Tubidity increases with increasing tubulin polymerization, giving a false absorbence reading and, over time, a polymerization curve. […] 200 μM solutions (in DMSO) of compounds to be assayed were prepared, and substituted for portions of the DMSO in the polymerization mixture.
The method is given above in-vitro assay for anti-miotic activity.

In order of falling pIC50:
1. COc1cc2c(ccc1=O)[C@H]1CC[C@]3(C)[C@@H](O)CC[C@H]3[C@@H]1CC2 [Compound 11c, 4-Methoxy-A-Homo-1,4,5(10)-estratrien-17β-ol-3-one]  5.68
2. C[C@]12CC[C@@H]3c4ccc(Cl)c(=O)cc4CC[C@H]3[C@@H]1CC[C@@H]2O [Compound 8b, 3-Chloro -A-Homo-1(10), 2,4a-estratrien-17β ol-4-one]  5.55
3. C[C@]12CC[C@@H]3c4ccc(Br)c(=O)cc4CC[C@H]3[C@@H]1CC[C@@H]2O [Compound 8a, 3-Bromo-A-Homo-1(10), 2,4a-estratrien-17β-ol-4-one]  5.54
4. C[C@]12CC[C@@H]3c4ccc(=O)ccc4CC[C@H]3[C@@H]1CC[C@@H]2O [Compound 6, A-Homo-1,4,5(10)-estratrien-17β-ol-3-one]  5.36
5. CCOc1cc2c(ccc1=O)[C@H]1CC[C@]3(C)[C@@H](O)CC[C@H]3[C@@H]1CC2 [Compound 11d, 3-Ethoxy-A-Homo-1,4,5(10)-estratrien-17β-ol-3-one]  5.23
6. C[C@]12CC[C@@H]3c4cccc(=O)cc4CC[C@H]3[C@@H]1CC[C@@H]2O [Compound 3, A-Homo-1(10), 2,4a-estratrien-17β-ol-4-one]  5.14
7. COc1ccc2c(cc1=O)CC[C@@H]1[C@@H]2CC[C@]2(C)[C@@H](O)CC[C@@H]12 [Compound 8c, 3-Methoxy-A-Homo-1(10), 2,4a-estratrien-17β-ol-4-one]  5.09
8. C[C@]12CC[C@@H]3c4ccc(=O)c(N)cc4CC[C@H]3[C@@H]1CC[C@@H]2O [Compound 15b, 4-Amino-A-homo-1,4,5(10)-estratrien-17β-ol-3-one]  5.04
9. 4 Chloro-A-Homo-4,5(10)-estradien-2,17β-diol-3-one [Compound 11b]  5.01
10. C=Cc1ccc2c(cc1=O)CC[C@@H]1[C@@H]2CC[C@]2(C)[C@@H](O)CC[C@@H]12 [Compound 18, 3-Vinyl-A-homo-1(10), 2,4a-estratrien-17β-ol-4-one]  4.85
11. CN(C)c1ccc2c(cc1=O)CC[C@@H]1[C@@H]2CC[C@]2(C)[C@@H](O)CC[C@@H]12 [Compound 19b, 3-Dimethylamino-A-homo-1(10), 2,4a-estratrien-17β-ol-4-one]  4.84
12. C[C@]12CC[C@@H]3c4ccc(N)c(=O)cc4CC[C@H]3[C@@H]1CC[C@@H]2O [Compound 14, 3-Amino-A-homo-1(10), 2,4a-estratrien-17β-ol-4-one]  4.84
13. C[C@]12CC[C@@H]3c4cc(O)c(=O)ccc4CC[C@H]3[C@@H]1CC[C@@H]2O [Compound 16a, A-homo-1,4,5(10)-estratrien-2, 17β-diol-3-one]  4.83
14. C[C@]12CC[C@@H]3c4cc(N)c(=O)ccc4CC[C@H]3[C@@H]1CC[C@@H]2O [Compound 15a, 2-Amino-A-homo-1,4,5(10)-estratrien-17β-ol-3-one]  4.78
15. CNc1cc2c(ccc1=O)[C@H]1CC[C@]3(C)[C@@H](O)CC[C@H]3[C@@H]1CC2 [Compound 19c, 4-Methylamino-A-homo-1,4,5(10)-estratrien-17β-ol-3-one]  4.71
16. C[C@]12CC[C@@H]3c4ccc(O)c(=O)cc4CC[C@H]3[C@@H]1CC[C@@H]2O [Compound 16b, A-homo-1(10), 2,4a-estratrien-3,17β-diol-3-one]  4.64
17. COc1ccc2c(cc1=O)[C@H]1CC[C@]3(C)[C@@H](O)CC[C@H]3[C@@H]1CC2 [Compound 12, 3-Methoxy-A-Homo-1(10), 3,4a-estratrien-17β-ol-2-one]  4.56
18. COc1cc2c(ccc1=O)CC[C@@H]1[C@@H]2CC[C@]2(C)[C@@H](O)CC[C@@H]12 [Compound 13, 2-Methoxy-A-Homo-1,4,5(10)-estratrien-17β-ol-3-one]  4.53
19. CN(C)c1cc2c(ccc1=O)[C@H]1CC[C@]3(C)[C@@H](O)CC[C@H]3[C@@H]1CC2 [Compound 19d, 4-Dimethylamino-A-homo-1,4,5(10)-estratrien-17β-ol-3-one]  4.33
20. C[C@]12CC[C@@H]3c4ccc([N+](=O)[O-])c(=O)cc4CC[C@H]3[C@@H]1CC[C@@H]2O [Compound 17a, 3-Nitro-A-homo-1(10), 2,4a-estratrien-17β-ol-4-one]  4.28
21. CNc1ccc2c(cc1=O)CC[C@@H]1[C@@H]2CC[C@]2(C)[C@@H](O)CC[C@@H]12 [Compound 19a, 3-Methylamino-A-homo-1(10), 2,4a-estratrien-17β-ol-4-one]  4.22
